target: Aldose reductase (Oryctolagus cuniculus); assay: In vitro inhibition of rabbit lens aldose reductase.

First: CC(C(=O)O)c1cc(O)c2c(=O)c3ccccc3ccc2c1 (stereo not given) [2-(4-Hydroxy-5-oxo-5H-dibenzo[a,d]cyclohepten-2-yl)-propionic acid]
Second: O=C(O)Cc1cc(O)c2c(=O)c3ccccc3ccc2c1 [(4-Hydroxy-5-oxo-5H-dibenzo[a,d]cyclohepten-2-yl)-acetic acid]
The IC50 of the first is 3.6-fold higher: 2700 nM for the first, 760 nM for the second. The second is the more potent here.

Compared with `CC(C(=O)O)c1cc(O)c2c(c1)CCc1ccccc1C2=O` (stereo not given) [2-(4-Hydroxy-5-oxo-10,11-dihydro-5H-dibenzo[a,d]cyclohepten-2-yl)-propionic acid], `O=C(O)Cc1cc(O)c2c(c1)CCc1ccccc1C2=O` [(4-Hydroxy-5-oxo-10,11-dihydro-5H-dibenzo[a,d]cyclohepten-2-yl)-acetic acid] is 520-fold higher in IC50: 210 nM for the first, 110000 nM for the second.

Compared with `O=C1Cc2ccc3c(c2O1)CCc1ccccc1C3=O` [11,12-Dihydro-3H-1-oxa-benzo[4,5]cyclohepta[1,2-e]indene-2,6-dione], `O=C(O)Cc1ccc2c(c1)CCc1ccccc1C2=O` [(5-Oxo-10,11-dihydro-5H-dibenzo[a,d]cyclohepten-2-yl)-acetic acid] is 210-fold higher in IC50: 770 nM for the first, 160000 nM for the second.

Going from `O=C(O)Cc1ccc2c(=O)c3ccccc3ccc2c1` [(5-Oxo-5H-dibenzo[a,d]cyclohepten-2-yl)-acetic acid] to `O=C(O)Cc1ccc2c(c1)OCc1ccccc1C2=O` [Oxepinac], the IC50 falls from 1000 nM to 330 nM (3-fold). The second is the more potent here.

First: O=C(O)Cc1ccc2c(c1)CCc1cccc(O)c1C2=O [(6-Hydroxy-5-oxo-10,11-dihydro-5H-dibenzo[a,d]cyclohepten-2-yl)-acetic acid]
Second: O=C(O)Cc1ccc2c(c1)CCc1ccc(O)cc1C2=O [(7-Hydroxy-5-oxo-10,11-dihydro-5H-dibenzo[a,d]cyclohepten-2-yl)-acetic acid]
The IC50 of the first is 340-fold higher: 280000 nM for the first, 830 nM for the second.
